The values below come from article PMC4280904 (Journal of Veterinary Pharmacology and Therapeutics, 2014).

The structures appear in SMILES notation.

What all share (design): species or system Wistar rats
One data set concerns CYP1A. The data set can be described thus: In vivo enzyme induction: ethylresorufin O-deethylase. Conditions: rats.
The test system of a further data set is CYP2A. The data set can be described thus: In vivo enzyme induction: ethoxycoumarin O-deethylase. The following applies: rats.
In another data set the test system is CYP2B. In words: In vivo enzyme induction: pentylresorufin O-depentylase. Conditions: rats.
Another data set deals with NAT2. The data set can be described thus: In vivo enzyme induction: N-acetyltransferase, procainamide. The following applies: rats, 20 mg/kg i.p. once daily 7 days.
The next data set deals with CYP3A. In words: In vivo enzyme induction: erythromycin N-demethylase. Conditions: rats, 40 mg/kg p.o. once daily 7 days.
Where [1] appears, read: 40 mg/kg i.p. once daily 7 days.
Setting [2] is: 40 mg/kg p.o. once daily 7 days.

Regarding `O=c1cc(-c2ccccc2)oc2ccc3ccccc3c12` [β-naphthoflavone], the “CYP1A enzyme activity relative to control” value in the data set on CYP1A (setting [1]) amounted to 25.1 fold. The “CYP2A enzyme activity relative to control” value in the data set with CYP2A (setting [1]) was 15.8 fold. Moreover, the “CYP2B enzyme activity relative to control” value in the data set with CYP2B (setting [1]) stood at 3.8 fold.

For the compound `C[C@@H]1C[C@H]2[C@@H]3CCC4=CC(=O)C=C[C@]4(C)[C@@]3(F)[C@@H](O)C[C@]2(C)[C@@]1(O)C(=O)CO` [Dexamethasone, dexamethasone, reference compound], the “NAT2 activity compared with untreated controls” value in the data set with NAT2 is 1.8 fold.

For `CCC1(c2ccccc2)C(=O)NC(=O)NC1=O` [Phenobarbital, phenobarbital], the “CYP1A enzyme activity relative to control” value in the data set with CYP1A (setting [2]) is 5.5 fold. Moreover, the “CYP2A enzyme activity relative to control” value in the data set with CYP2A (setting [2]) was found to be 2.6 fold. Besides, in the data set on CYP2B (setting [2]), the “CYP2B enzyme activity relative to control” value worked out at 17.7 fold. Besides, in the data set on CYP3A, the “CYP3A enzyme activity relative to control” value was found to be 3.5 fold.
